pIC50: −log10 of the molar value.

For one assay, the target named is His-tagged recombinant human Gal-3 (hGal-3) (Homo sapiens (Human), UniProt P17931). Briefly: Gal-3 HTRF assay (His-tagged hGal-3 binding to B-ASF).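 Further: compounds preincubated 30 min with hGal-3, then 1 h with B-ASF, detection via terbium anti-His antibody and streptavidin d2. Control with B-ASF counts as full signal, omitting B-ASF as background.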 Particulars: HTRF, hGal-3 15 nM, B-ASF 15 nM; read-out: hGal-3 IC50.
His-tagged recombinant human Gal-3 (hGal-3), sequence (P17931 whole entry): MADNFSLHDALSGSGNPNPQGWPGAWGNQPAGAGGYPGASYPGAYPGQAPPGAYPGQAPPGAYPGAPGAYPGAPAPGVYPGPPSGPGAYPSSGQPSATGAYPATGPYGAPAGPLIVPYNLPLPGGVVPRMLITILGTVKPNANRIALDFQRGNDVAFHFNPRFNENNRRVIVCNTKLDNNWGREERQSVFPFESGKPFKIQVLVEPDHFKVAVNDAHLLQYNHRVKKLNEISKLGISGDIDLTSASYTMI
With `O=C(NCc1cccnc1)c1nnc([C@@H]2O[C@H](CO)[C@H](O)[C@H](n3cc(-c4cccc(F)c4)nn3)[C@H]2O)o1` [Example 298, 5-((2R,3R,4S,5R,6R)-4-(4-(3-fluorophenyl)-1H-1,2,3-triazol-1-yl)-3,5-dihydroxy-6-(hydroxymethyl)tetrahydro-2H-pyran-2-yl)-N-(pyridin-3-ylmethyl)-1,3,4-oxadiazole-2-carboxamide], the negative logarithm of the IC50 (pIC50) is 4.36.

`Cc1nc2cc(-n3cnnc3[C@@H]3O[C@H](CO)[C@H](O)[C@H](n4cc(-c5cc(F)c(F)c(F)c5)nn4)[C@H]3O)ccc2n1C` [Example 168]: the pIC50 is 6.30.

On to `CCc1ccc(Cl)cc1-n1nc(C)nc1[C@@H]1O[C@H](CO)[C@H](O)[C@H](n2cc(-c3cc(F)c(F)c(F)c3)nn2)[C@H]1O` [Example 72], for which the negative logarithm of the IC50 (pIC50) is 7.70.

For the molecule `CCO[C@@H]1[C@@H](n2cc(-c3cc(F)c(F)c(F)c3)nn2)[C@@H](O)[C@@H](CO)O[C@H]1c1ncnn1-c1cccc(Cl)c1` [Example 55], the pIC50 was 6.80.

`O=C(O)CO[C@@H]1[C@@H](n2cc(-c3cc(F)c(F)c(F)c3)nn2)[C@@H](O)[C@@H](CO)O[C@H]1c1ncnn1-c1cccc(Cl)c1` [Example 53, 2-(((2S,3R,4S,5R,6R)-2-(1-(3-chlorophenyl)-1H-1,2,4-triazol-5-yl)-5-hydroxy-6-(hydroxymethyl)-4-(4-(3,4,5-trifluorophenyl)-1H-1,2,3-triazol-1-yl)tetrahydro-2H-pyran-3-yl)oxy)acetic acid]: the pIC50 was 7.64.

Consider `OC[C@H]1O[C@@H](c2nncn2-c2cnc3ccccc3c2)[C@H](O)[C@@H](n2cc(-c3cc(F)c(F)c(F)c3)nn2)[C@H]1O` [Example 123], for which the negative-log IC50 (pIC50) is 7.00.

As for `Cc1nc2ccc(-n3ncnc3[C@@H]3O[C@H](CO)[C@H](O)[C@H](n4cc(C(=O)NC5CC5)nn4)[C@H]3O)cc2s1` [Example 193, N-cyclopropyl-1-((2R,3R,4R,5R,6S)-3,5-dihydroxy-2-(hydroxymethyl)-6-(1-(2-methylbenzo[d]thiazol-6-yl)-1H-1,2,4-triazol-5-yl)tetrahydro-2H-pyran-4-yl)-1H-1,2,3-triazole-4-carboxamide], the pIC50 was 6.74.

Regarding `CNC(=O)c1nc([C@H]2C[C@@H](n3cc(-c4cccc(F)c4)nn3)[C@@H](O)[C@@H](CO)O2)n(-c2ccc3nc(C)sc3c2)n1` [Example 271, 5-((2R,4R,5R,6R)-4-(4-(3-fluorophenyl)-1H-1,2,3-triazol-1-yl)-5-hydroxy-6-(hydroxymethyl)tetrahydro-2H-pyran-2-yl)-N-methyl-1-(2-methylbenzo[d]thiazol-6-yl)-1H-1,2,4-triazole-3-carboxamide], the pIC50 is 6.41.

The same assay, now with this note: read-out: hGal3 IC50.
`CC(=O)Nc1ccc(-c2cn([C@H]3[C@@H](O)[C@@H](CO)O[C@@H](c4ncnn4-c4ccc5nc(C)sc5c4)[C@@H]3O)nn2)cc1F` [Example 204]: the pIC50 is 5.30.

Take `Cc1nnc([C@@H]2O[C@H](CO)[C@H](O)[C@H](n3cc(-c4cc(F)c(Br)c(F)c4)nn3)[C@H]2O)n1-c1cc(Cl)ccc1C(F)(F)F` [Example 313]: the pIC50 is 8.06.

In the case of `COc1cc(-c2cn([C@H]3[C@@H](O)[C@@H](CO)O[C@@H](c4ncnn4-c4ccc5nc(C)sc5c4)[C@@H]3O)nn2)cc(F)c1F` [Example 232], the negative logarithm of the IC50 (pIC50) is 7.40.

In the case of `N#Cc1ccc(Cl)cc1-n1cnnc1[C@@H]1O[C@H](CO)[C@H](O)[C@H](n2cc(-c3cc(F)c(Cl)c(F)c3)nn2)[C@H]1O` [Example 312], the pIC50 was 5.80.

Still in this assay, the particulars now being: read-out: hGal IC50.
Regarding `Cc1nc([C@@H]2O[C@H](CO)[C@H](O)[C@H](n3cc(-c4cc(F)c(Br)c(F)c4)nn3)[C@H]2O)n(-c2cc(Cl)cc3cccnc23)n1` [Example A14], the pIC50 was 7.62.

Regarding `Cc1nc([C@@H]2O[C@H](CO)[C@H](O)[C@H](n3cc(-c4ccc(Br)c(F)c4)nn3)[C@H]2O)n(-c2cc(Cl)ccc2C2CC2)n1` [Example A38], the negative-log IC50 (pIC50) was 7.14.

For `Cc1nc([C@@H]2O[C@H](CO)[C@H](O)[C@H](n3cc(-c4cc(F)c(Br)c(F)c4)nn3)[C@H]2O)n(-c2ccc3ncsc3c2)n1` [Example A29], the pIC50 is 7.57.
